The source of these data is patent publication US5593984A, “Cephalosporin derivatives” (Yuhan Corporation, priority 1992, dated 1997).

Holding throughout (assay type): cell-based
One assay deals with B. subtilis ATCC 6633. In words: MIC by agar dilution, B. subtilis ATCC 6633. To be noted: Bacillus subtilis, ATCC6633, 17 h; B. subtilis ATCC 6633; agar dilution, Mueller-Hinton agar; read-out: Minimal Inhibitory Concentration (MIC). As for the experimental part:
(§1) These MIC values were determined by agar dilution method: that is, two-fold dilutions of each of the test compounds were made and dispersed in a Mueller-Hinton agar medium; standard test strain which had the 10^6 CFU (Colony Forming Unit) per ml was inoculated on the medium with microplanter (Toyo, Japan), and incubated at 35°-37° C. for 17±1 hours. The structures of Ceftazidime (CAZ) and Cefotaxime (CTX) which are used as control compounds are as follows: [drawing 12]
Background: In agar dilution, organisms are placed on agar that contains the substance at set levels.

A further assay has as its system Staph. aureus ATCC 6538P. Put plainly: MIC by agar dilution, Staph. aureus ATCC 6538P. To be noted: Staphylococcus aureus, ATCC6538P, 17 h; Staph. aureus ATCC 6538P; agar dilution, Mueller-Hinton agar; read-out: Minimal Inhibitory Concentration (MIC). How it is done:
as §1

A further assay has as its system Staph. aureus Smith. Put plainly: MIC by agar dilution, Staph. aureus Smith. To be noted: Staphylococcus aureus, 17 h, Mueller-Hinton agar, read-out: Minimal Inhibitory Concentration (MIC). How it is done: as §1
In a further assay the test system is Staph. aureus C-57. In words: MIC by agar dilution, Staph. aureus C-57. To be noted: Staphylococcus aureus, C57, 17 h, Mueller-Hinton agar, read-out: Minimal Inhibitory Concentration (MIC). As for the experimental part:
as §1

Another assay deals with Staph. aureus C-5113. Put plainly: MIC by agar dilution, Staph. aureus C-5113. To be noted: Staphylococcus aureus, C5113, 17 h, Mueller-Hinton agar, read-out: Minimal Inhibitory Concentration (MIC). As for the experimental part: as §1
The next assay deals with Staph. aureus C-5216. Put plainly: MIC by agar dilution, Staph. aureus C-5216. To be noted: Staphylococcus aureus, C5216, 17 h, Mueller-Hinton agar, read-out: Minimal Inhibitory Concentration (MIC). As for the experimental part: as §1
Assay [1] has as its system S. epidermidis ATCC 12228. In words: MIC by agar dilution, S. epidermidis ATCC 12228. To be noted: Staphylococcus epidermidis, ATCC12228, 17 h; S. epidermidis ATCC 12228; agar dilution, Mueller-Hinton agar; read-out: Minimal Inhibitory Concentration (MIC). How it is done: as §1
Another assay deals with Ent. aerogenes IFO 12979. In words: MIC by agar dilution, Ent. aerogenes IFO 12979. To be noted: Klebsiella aerogenes, IFO12979, 17 h, Mueller-Hinton agar, read-out: Minimal Inhibitory Concentration (MIC). As for the experimental part: as §1
The subject of the next assay is Ent. cloacae IFO 13535. In words: MIC by agar dilution, Ent. cloacae IFO 13535. To be noted: Enterobacter cloacae, IFO13535, 17 h; Ent. cloacae IFO 13535; agar dilution, Mueller-Hinton agar; read-out: Minimal Inhibitory Concentration (MIC). How it is done: as §1
A further assay deals with E. coli NIHJ JC-2. Put plainly: MIC by agar dilution, E. coli NIHJ JC-2. To be noted: Escherichia coli, NIHJJC2, 17 h; E. coli NIHJ JC-2; agar dilution, Mueller-Hinton agar; read-out: Minimal Inhibitory Concentration (MIC). How it is done: as §1
The test system of a further assay is E. coli No. 29. Put plainly: MIC by agar dilution, E. coli No. 29. To be noted: Escherichia coli, 17 h; E. coli No. 29; agar dilution, Mueller-Hinton agar; read-out: Minimal Inhibitory Concentration (MIC). As for the experimental part: as §1
The subject of a further assay is E. coli DY-1. Put plainly: MIC by agar dilution, E. coli DY-1. To be noted: Escherichia coli, DY1, 17 h; E. coli DY-1; agar dilution, Mueller-Hinton agar; read-out: Minimal Inhibitory Concentration (MIC). As for the experimental part: as §1
The test system of the next assay is K. pneumoniae NCTC 9632. Put plainly: MIC by agar dilution, K. pneumoniae NCTC 9632. To be noted: Klebsiella pneumoniae, NCTC9632, 17 h; K. pneumoniae NCTC 9632; agar dilution, Mueller-Hinton agar; read-out: Minimal Inhibitory Concentration (MIC). How it is done:
as §1

For the next assay, the system named is M. morganii DY-1. In words: MIC by agar dilution, M. morganii DY-1. To be noted: Morganella morganii, DY1, 17 h; M. morganii DY-1; agar dilution, Mueller-Hinton agar; read-out: Minimal Inhibitory Concentration (MIC). As for the experimental part: as §1
In assay [2] the test system is Ps. aeruginosa ATCC 10145. Put plainly: MIC by agar dilution, Ps. aeruginosa ATCC 10145. To be noted: Pseudomonas aeruginosa, ATCC10145, 17 h, Mueller-Hinton agar, read-out: Minimal Inhibitory Concentration (MIC). As for the experimental part:
as §1

Assay [3] concerns Ps. aeruginosa NCTC 10490. In words: MIC by agar dilution, Ps. aeruginosa NCTC 10490. To be noted: Pseudomonas aeruginosa, NCTC10490, 17 h, Mueller-Hinton agar, read-out: Minimal Inhibitory Concentration (MIC). As for the experimental part: as §1
A further assay deals with Ps. aeruginosa DY-2. Put plainly: MIC by agar dilution, Ps. aeruginosa DY-2. To be noted: Pseudomonas aeruginosa, DY2, 17 h; Ps. aeruginosa DY-2; agar dilution, Mueller-Hinton agar; read-out: Minimal Inhibitory Concentration (MIC). As for the experimental part: as §1
For the next assay, the system named is P. vulgaris NCTC 8313. Put plainly: MIC by agar dilution, P. vulgaris NCTC 8313. To be noted: Proteus vulgaris, NCTC8313, 17 h; P. vulgaris NCTC 8313; agar dilution, Mueller-Hinton agar; read-out: Minimal Inhibitory Concentration (MIC). How it is done: as §1
In a further assay the test system is Prov. stuartii IFO 12930. In words: MIC by agar dilution, Prov. stuartii IFO 12930. To be noted: Providencia stuartii, IFO12930, 17 h, Mueller-Hinton agar, read-out: Minimal Inhibitory Concentration (MIC). As for the experimental part: as §1
Assay [4] has as its system Ser. marcescens IFO 12648. In words: MIC by agar dilution, Ser. marcescens IFO 12648. To be noted: Serratia marcescens, IFO12648, 17 h; Ser. marcescens IFO 12648; agar dilution, Mueller-Hinton agar; read-out: Minimal Inhibitory Concentration (MIC). How it is done:
as §1

Converted amounts (≈) assume the structure as drawn.

Consider `CO/N=C(\C(=O)N[C@@H]1C(=O)N2C(C(=O)[O-])=C(C[n+]3ccn4c(CO)ccc4c3C)CS[C@H]12)c1csc(N)n1` [Ex. 46, 7-β-[(Z)-2-(2-aminothiazol-4-yl)-2-methoxyiminoacetamido]-3-(6-hydroxymethyl-1-methylpyrrolo[1,2-a]pyrazinium-2-yl)methyl-3-cephem-4-carboxylate], for which the MIC was 0.39 µg/mL (≈ 0.699 µM) in the assay with B. subtilis ATCC 6633; 0.2 µg/mL (≈ 0.359 µM) with Staph. aureus ATCC 6538P; 0.78 µg/mL (≈ 1.4 µM) in the assay with Staph. aureus Smith; 50 µg/mL (≈ 89.7 µM) in the assay with Staph. aureus C-57; 1.56 µg/mL (≈ 2.8 µM) in the assay with Staph. aureus C-5113; 1.56 µg/mL (≈ 2.8 µM) with Staph. aureus C-5216. Also, the MIC in [1] came to 0.1 µg/mL (≈ 0.179 µM); with Ent. aerogenes IFO 12979, 0.05 µg/mL (≈ 0.0897 µM); in the assay with Ent. cloacae IFO 13535, 0.1 µg/mL (≈ 0.179 µM); in the assay on E. coli NIHJ JC-2, 0.05 µg/mL (≈ 0.0897 µM); with E. coli No. 29, 0.025 µg/mL (≈ 0.0448 µM); in the assay on E. coli DY-1 it was 0.025 µg/mL (≈ 0.0448 µM). Further, the MIC was determined as 0.05 µg/mL (≈ 0.0897 µM) with K. pneumoniae NCTC 9632; 0.1 µg/mL (≈ 0.179 µM) with M. morganii DY-1; 3.13 µg/mL (≈ 5.61 µM) in assay [2]; 0.78 µg/mL (≈ 1.4 µM) in assay [3]; 0.25 µg/mL (≈ 0.448 µM) with Ps. aeruginosa DY-2; 0.05 µg/mL (≈ 0.0897 µM) in the assay with P. vulgaris NCTC 8313. Besides, the MIC in the assay on Prov. stuartii IFO 12930 was 0.012 µg/mL (≈ 0.0215 µM); in assay [4] it was 0.05 µg/mL (≈ 0.0897 µM).
Consider `CO/N=C(\C(=O)N[C@@H]1C(=O)N2C(C(=O)[O-])=C(C[n+]3ccn4cccc4c3)CS[C@H]12)c1nc(N)sc1Cl` [Ex. 47, 7-β-[(Z)-2-(2-amino-5-chlorothiazol-4-yl)-2-methoxyiminoacetamido]-3-(pyrrolo[1,2-a]pyrazinium-2-yl)methyl-3-cephem-4-carboxylate], for which the MIC came to 0.025 µg/mL (≈ 0.0456 µM) in the assay on B. subtilis ATCC 6633; 0.05 µg/mL (≈ 0.0912 µM) in the assay with Staph. aureus ATCC 6538P; 0.2 µg/mL (≈ 0.365 µM) in the assay with Staph. aureus Smith; 1.56 µg/mL (≈ 2.85 µM) in the assay on Staph. aureus C-57; 0.2 µg/mL (≈ 0.365 µM) with Staph. aureus C-5113; 0.2 µg/mL (≈ 0.365 µM) in the assay on Staph. aureus C-5216. The MIC worked out at 0.025 µg/mL (≈ 0.0456 µM) in [1]; 0.012 µg/mL (≈ 0.0219 µM) in the assay with Ent. aerogenes IFO 12979; 0.39 µg/mL (≈ 0.712 µM) in the assay on Ent. cloacae IFO 13535; 0.1 µg/mL (≈ 0.182 µM) in the assay with E. coli NIHJ JC-2; 0.05 µg/mL (≈ 0.0912 µM) in the assay with E. coli No. 29; 0.012 µg/mL (≈ 0.0219 µM) in the assay on E. coli DY-1. Besides, the MIC is 0.05 µg/mL (≈ 0.0912 µM) in the assay on K. pneumoniae NCTC 9632; 0.05 µg/mL (≈ 0.0912 µM) in the assay on M. morganii DY-1; 0.78 µg/mL (≈ 1.42 µM) in assay [2]; 0.05 µg/mL (≈ 0.0912 µM) in assay [3]; 3.13 µg/mL (≈ 5.71 µM) in the assay with Ps. aeruginosa DY-2; at most 0.006 µg/mL with P. vulgaris NCTC 8313. For the same compound, the results for the MIC (with Prov. stuartii IFO 12930; in [4]) were 0.025 µg/mL (≈ 0.0456 µM) and 0.1 µg/mL (≈ 0.182 µM), respectively.
For `Nc1nc(/C(=N/OCF)C(=O)N[C@@H]2C(=O)N3C(C(=O)[O-])=C(C[n+]4ccn5ccc(CO)c5c4)CS[C@H]23)cs1` [Ex. 32, 7-β-[(Z)-2-(2-aminothiazol-4-yl)2-fluoromethoxyiminoacetamido]-3-(8-hydroxymethylpyrrolo[1,2-a]pyrazinium-2-yl)methyl-3-cephem-4-carboxylate], the MIC in the assay with B. subtilis ATCC 6633 worked out at 0.1 µg/mL (≈ 0.178 µM); in the assay with Staph. aureus ATCC 6538P, 0.2 µg/mL (≈ 0.356 µM); in the assay on Staph. aureus Smith, 0.78 µg/mL (≈ 1.39 µM); with Staph. aureus C-57 it was 25 µg/mL (≈ 44.5 µM); with Staph. aureus C-5113 it was 3.13 µg/mL (≈ 5.57 µM); in the assay with Staph. aureus C-5216 it was 1.56 µg/mL (≈ 2.78 µM). The MIC in [1] was 0.1 µg/mL (≈ 0.178 µM); in the assay with Ent. aerogenes IFO 12979, 0.025 µg/mL (≈ 0.0445 µM); in the assay on Ent. cloacae IFO 13535, 0.1 µg/mL (≈ 0.178 µM); with E. coli NIHJ JC-2, at most 0.006 µg/mL; in the assay with E. coli No. 29, at most 0.006 µg/mL; in the assay on E. coli DY-1, at most 0.006 µg/mL. In addition, the MIC in the assay on K. pneumoniae NCTC 9632 came out at 0.025 µg/mL (≈ 0.0445 µM); with M. morganii DY-1 it was 0.025 µg/mL (≈ 0.0445 µM); in [2] it was 0.78 µg/mL (≈ 1.39 µM); in assay [3], 0.2 µg/mL (≈ 0.356 µM); with Ps. aeruginosa DY-2, 3.13 µg/mL (≈ 5.57 µM); in the assay with P. vulgaris NCTC 8313, 0.012 µg/mL (≈ 0.0214 µM). Moreover, the MIC in the assay with Prov. stuartii IFO 12930 was 0.012 µg/mL (≈ 0.0214 µM); in [4], 0.05 µg/mL (≈ 0.089 µM).
